Test results as given in patent US20130011855A1, “Methods for Determining Aged Based Accumulation of Senescent Cells Using Senescense Specific DNA Damage Markers” (priority 2008, published 2013).

What was measured:
ATM/ATR p (S/TQ) = assay: Relative immunofluorescent intensity of ATM/ATR p (S/TQ) foci in frozen liver sections; assay type: in vivo; conditions: single i.p. injection to juvenile mice, liver hepatocytes
Method: (§1) Eight to eleven-day-old F1 mice from C57BL/6, obtained from the National Institute of Aging, Aged Rodent Colonies (Bethesda, Md.), were injected intraperitoneally with AAT (Sigma-Aldrich; St. Louis, Mo.) at 2 mg/kg body weight in corn oil. […] Control gender-matched litter mates were injected with corn oil or PBS. […] Female C57BL/6 mice (4- and 22-month-old) were allowed to acclimate at least 1 week prior to usage. All procedures were done within the guidelines of the Animal Research Committee at the University of Illinois at Chicago and the “Principles of laboratory animal care” (NIH publication No. 86-23, revised 1985).
(§2) To detect DNA damage foci, frozen 5-micron liver sections were rapidly transferred to slides after sectioning, then immediately fixed in 2% paraformaldehyde PBS for 20 min, and then prepared following standard protocols. […] Foci-associated nuclei and total nuclei were counted using Image Pro Plus software (MediaCybernetics, Bethesda, Md.). Three to four mice were used for each time point and 300-500 nuclei were counted for each subject. Relative fluorescence intensity of foci in images was quantitated using the density measurement of the Image Pro Plus software with subtraction of local background levels. Four to seven mice were studied per time point with 8 to 18 53BP1/phospho ATM foci scored per mouse. […]

ATM p (S1987) = assay: Relative immunofluorescent intensity of phospho ATM foci in frozen liver sections; assay type: in vivo, mice; conditions: for Relative immunofluorescent intensity of foci for ATM p (S1987): single i.p. injection to juvenile mice, liver hepatocytes; for signal strength of phospho ATM in 53BP1/phospho ATM foci: by 7 weeks after exposure
Method: as §1
To detect DNA damage foci, frozen 5-micron liver sections were rapidly transferred to slides after sectioning, then immediately fixed in 2% paraformaldehyde PBS for 20 min, and then prepared following standard protocols. […] The specificity was verified by blockage with oligopeptides bearing the antigenic sequences. Antiphospho ATM (S1981) (Rockland Immunochemicals, Gilbertsville, Pa.; 1:800) was a mouse antibody. Anti-rabbit and anti-mouse secondary antibodies conjugated to Cy-3 were obtained from Jackson Immunoresearch (West Grove, Pa.). Prior to mouse primary antibody application, tissues were first blocked with 1% goat anti-mouse FAB (Jackson Immunoresearch) followed by incubation with 4% BSA. Slides were counterstained with 0.2 ug/ml 4′,6-diamidino-2-phenylindole (DAPI) for 2 min prior to mounting in mowiol (Calbiochem; San Diego, Calif.) with 2% 1,4-diazobicyclo[2,2,2]octane (Sigma-Aldrich). Fluorescent 400× images were typically collected immediately after the assay. Foci-associated nuclei and total nuclei were counted using Image Pro Plus software (MediaCybernetics, Bethesda, Md.). Three to four mice were used for each time point and 300-500 nuclei were counted for each subject. Relative fluorescence intensity of foci in images was quantitated using the density measurement of the Image Pro Plus software with subtraction of local background levels. Four to seven mice were studied per time point with 8 to 18 53BP1/phospho ATM foci scored per mouse. Minimally exposed images were used. The student's t-test was used for statistical comparisons for these and other experiments. For double labeling with anti-phospho ATM (S1981) and anti-53BP1 antibodies, sections were prepared as described above, first labeling with the anti-phospho-ATM (S1981) and Cy-3 secondary antibody as above, then incubated with 4% BSA, followed by anti-53BP1 and then by Alexa 488 conjugated goat anti-rabbit antibody (Invitrogen; Carlsbad, Calif.; 1:200). All secondary antibodies were pre-adsorbed to reduce cross-reactivity as verified by negative control experiments.

[1] = system: 53BP1/phospho ATM (S1981) foci in hepatocytes; assay: Hepatocytes positive for 53BP1/phospho ATM co-localized foci in liver sections; assay type: in vivo, mice
Method: as §1, §2

[2] = system: 53BP1 foci in hepatocytes; assay: 53BP1 foci immunolocalization in hepatocytes of frozen liver sections; assay type: in vivo, mice; conditions: by 2.5 days after exposure
Method: Eight to eleven-day-old F1 mice from C57BL/6, obtained from the National Institute of Aging, Aged Rodent Colonies (Bethesda, Md.), were injected intraperitoneally with AAT (Sigma-Aldrich; St. Louis, Mo.) at 2 mg/kg body weight in corn oil. […] Control gender-matched litter mates were injected with corn oil or PBS. […] All procedures were done within the guidelines of the Animal Research Committee at the University of Illinois at Chicago and the “Principles of laboratory animal care” (NIH publication No. 86-23, revised 1985).
To detect DNA damage foci, frozen 5-micron liver sections were rapidly transferred to slides after sectioning, then immediately fixed in 2% paraformaldehyde PBS for 20 min, and then prepared following standard protocols. […] The specificity was verified by blockage with oligopeptides bearing the antigenic sequences. […] Foci-associated nuclei and total nuclei were counted using Image Pro Plus software (MediaCybernetics, Bethesda, Md.). Three to four mice were used for each time point and 300-500 nuclei were counted for each subject. Relative fluorescence intensity of foci in images was quantitated using the density measurement of the Image Pro Plus software with subtraction of local background levels. Four to seven mice were studied per time point with 8 to 18 53BP1/phospho ATM foci scored per mouse. […]

phospho Chk2 (T68) = assay: Phospho Chk2 (T68) nuclear immunostaining of liver sections; assay type: in vivo, mice
Method: as §1, §2

p53 (S 15) = assay: Phospho p53 (S15) immunostaining of liver sections; assay type: in vivo, mice; conditions: baseline or near baseline levels by 3-7 weeks post exposure
Method: as §1, §2

primary hepatocytes [3] = assay: S phase index by [3H]thymidine labeling of hepatocytes isolated from exposed mice; assay type: cell-based; conditions: hepatocytes from juvenile mice exposed 3 weeks previously
Method: (§3) FIG. 5A Collagenase perfusion was used to isolate hepatocytes from juvenile mice exposed 3 weeks previously to AAT. Twenty-four hours prior to fixation, cells were incubated with [3H]thymidine to allow the quantitation of the S phase index after processing for autoradiography. Shown are the means plus the (standard deviations) S.D. *P<0.002 versus the controls. FIG. 5B Cells isolated as described above from mice exposed, or not exposed, to AAT were subjected to the SA-β-Gal assay after fixation. At least 100 cells were counted on each plate from 3 to 5 control mice and 5 to 6 AAT exposed mice depending on the time point. Shown are the means plus S.D. *P<0.05 versus the controls. FIG. 5C Shown is a representative bright field image of primary hepatocytes 3 days after culture. Arrows indicate the blue, peri-nuclear stained, SA β Gal-positive cells. To reduce background [3H]thymidine detection was not done in this experiment. The phase contrast image below allows better visualization of the cells, original magnification 100×. FIG. 5D Hepatocytes isolated from adult 4-month-old and 22-month-old were cultured and assayed for S phase index as described. Shown are means plus S.D. There is a lag in S phase entry in cells from these adult mice. *P<0.02 and **P<0.004. FIG. 5E Hepatocytes from young adult and aged adult mice were cultured as described and then subjected to the SA β Gal assay. […]

primary hepatocytes [4] = assay: SA β Gal assay on hepatocytes isolated from exposed mice; assay type: cell-based; conditions: hepatocytes from exposed mice in primary culture
Method: as §3, with “100×.” for “100×. FIG. 5D Hepatocytes isolated from adult 4-month-old and 22-month-old were cultured and assayed for S phase index as described. Shown are means plus S.D. There is a lag in S phase entry in cells from these adult mice. *P<0.02 and **P<0.004. FIG. 5E Hepatocytes from young adult and aged adult mice were cultured as described and then subjected to the SA β Gal assay.”
DNA damage repair proteins such as Chk2 that are active in DDR are not active during senesce. […] There was no enrichment of activated phospho p53 (S15) or Chk2 (T68), while phospho ATM (S1981) positive cells were detected but the foci were of low intensity (FIG. 3, Table 1, data not shown). […]

Compound	Relative immunofluorescent intensity of foci for ATM/ATR p (S/TQ) (ATM/ATR p (S/TQ); 3 Wk post exposure)	Relative immunofluorescent intensity of foci for ATM/ATR p (S/TQ) (ATM/ATR p (S/TQ); 7 Wk post exposure)	Relative immunofluorescent intensity of foci for ATM p (S1987) (ATM p (S1987); 3 Wk post exposure)	Relative immunofluorescent intensity of foci for ATM p (S1987) (ATM p (S1987); 7 Wk post exposure)	signal strength of phospho ATM in 53BP1/phospho ATM foci (ATM p (S1987))	nuclear foci containing both 53BP1 and phospho ATM ([1]; 1 and 3 weeks after genotoxin exposure)	cells with 53BP1/phospho ATM foci ([1]; 7 weeks after exposure, versus unexposed control mice)	53BP1 foci in hepatocytes [2]	phospho Chk2 positive nuclei (phospho Chk2 (T68); 0.5 and 1 week after exposure)	activation of Chk2 (T68) over time (phospho Chk2 (T68); baseline or near baseline levels by 3-7 weeks post exposure)	activation of p53 (S 15) over time (p53 (S 15))	S phase entry of isolated hepatocytes (primary hepatocytes [3])	SA β Gal staining of isolated hepatocytes (primary hepatocytes [4])
Cc1cc(N=Nc2ccccc2C)ccc1N [AAT, aminoazotoluene]	100 ± 20.0	50 ± 17.5^A	100 ± 4.50	50 ± 9.80^D	significant decreases in the signal strength of phospho ATM	elevated levels of nuclear foci	still present at higher levels than in the unexposed control mice	Appearance of 53BP1 foci	high levels of nuclear staining	activated only transiently	activated only transiently	defective for S phase entry	positive for SA β Gal
CO[C@@]12[C@H](COC(N)=O)C3=C(C(=O)C(C)=C(N)C3=O)N1C[C@@H]1N[C@@H]12 [mitomycin C]					significant decreases in the signal strength of phospho ATM								
